Broadly, the Kd is the equilibrium constant for the complex coming apart. By IC50 is commonly meant the concentration needed to halve the response being measured. As a reminder, the inhibition is the percentage by which the read-out fell short of the control.

Structures can show the parent of a compound that is named as a salt. Bounds are passed on as bounds.

For assay [1], the target named is T1, wild type human RORγt ligand binding domain (RORγt LBD) (Homo sapiens, UniProt P51449).
T1 construct: His-tag (N); TurboTEV protease cleavage site (ENLYFQG) (N); made in house; host or cells: E. coli (pHIS1, modified pET expression vector)
T1 sequence (P51449 269-508 limits assumed): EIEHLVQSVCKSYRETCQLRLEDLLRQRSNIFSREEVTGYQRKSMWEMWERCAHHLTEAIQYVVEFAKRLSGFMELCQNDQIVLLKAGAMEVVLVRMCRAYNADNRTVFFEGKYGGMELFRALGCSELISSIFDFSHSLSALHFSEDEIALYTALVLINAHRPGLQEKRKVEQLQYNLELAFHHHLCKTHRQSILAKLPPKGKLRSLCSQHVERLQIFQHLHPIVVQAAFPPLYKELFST
Nature of the assay: RORγt ThermoFluor® Assay (thermal shift, binding affinity). The conditions noted are these: pH 7.0, estimated from concentration response curves. The gist of the method:
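Thermal shift assay on 0.065 mg/mL RORγt LBD with 60 µM 1,8-ANS in 100 mM Hepes pH 7.0, 10 mM NaCl, 2.5 mM GSH, 0.002% Tween-20. Heated at 1 °C/min, fluorescence read at 500 nm.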

The target of assay [2] is T2, wild type human RORγt LBD (Homo sapiens, UniProt P51449).
T2 construct: expressed in transfected cells; host or cells: HEK293T
T2 sequence (P51449 269-508 limits assumed): T1 sequence (P51449 269-508 limits assumed)
In words: RORγt Reporter Assay (GAL4-RORγt LBD luciferase in HEK293T cells). The assay is classed as cell-based. To be noted: HEK293T cells; for IC50: compounds for 24 hours, read-out: RORγt reporter Assay, IC50; for inhibition at 6 µM: HEK-293T, read-out: RORγt reporter Assay, % inhibition @ 6 µM, @ 6 µM. In a few lines: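 HEK293T cells transiently co-transfected with GAL4-DBD–human RORγt LBD (or AF2 mutant) and GAL4-responsive firefly luciferase reporter; renilla luciferase normalised transfection and viability. Compounds applied 24 h in 5% lipid-reduced FCS; firefly/renilla ratio plotted against concentration.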
(In a reporter assay the amount or activity of a reporter protein is the signal.)

`CON(C)c1nc2ccc(C(O)(c3ccc(C(F)(F)F)nc3)c3cncn3C)cc2c(N(C)OC)c1-c1ccccc1` (stereo not drawn) [Example 57, {2,4-Bis[methoxy(methyl)amino]-3-phenylquinolin-6-yl}(1-methyl-1H-imidazol-5-yl)[6-(trifluoromethyl)pyridin-3-yl]methanol]: the Kd in assay [1] was 0.58 µM. In assay [2], the IC50 came to 0.69 µM and the inhibition at 6 µM was 100%.
For `CON(C)c1nc2ccc(C(O)(c3ccc(Cl)cc3)c3cncn3C)cc2c(Cl)c1-c1ccccc1` (stereo not drawn) [Example 58, {4-Chloro-2-[methoxy(methyl)amino]-3-phenylquinolin-6-yl}(4-chlorophenyl)(1-methyl-1H-imidazol-5-yl)methanol], in that order: 0.22 µM, 0.15 µM and 99%.
For `COc1nc2c(C)cc(C(O)(c3ccc(C(F)(F)F)nc3)c3cncn3C)cc2c(Cl)c1-c1ccc(OC(F)(F)F)cc1` (stereo not drawn) [Example 63, (4-Chloro-2-methoxy-8-methyl-3-(4-(trifluoromethoxy)phenyl)quinolin-6-yl)(1-methyl-1H-imidazol-5-yl)(6-(trifluoromethyl)pyridin-3-yl)methanol], in that order: 0.0093 µM, over 6 µM and 26%.
Regarding `CN(C)c1nc2ccc(C(c3ccc(Cl)cc3)c3cncn3C)cc2c(Cl)c1-c1ccccc1` (stereo not drawn) [Example 71, 4-Chloro-6-((4-chlorophenyl)(1-methyl-1H-imidazol-5-yl)methyl)-N,N-dimethyl-3-phenylquinolin-2-amine], in assay [1], the Kd is 2.2 µM. Also, in assay [2], the IC50 was 1.4 µM and the inhibition at 6 µM came out at 84%.
On to `Cn1cncc1C(c1ccc(Cl)cc1)c1ccc2nc(C#N)c(-c3ccccc3)c(Cl)c2c1` (stereo not drawn) [Example 72, 4-Chloro-6-((4-chlorophenyl)(1-methyl-1H-imidazol-5-yl)methyl)-3-phenylquinoline-2-carbonitrile•TFA], for which, in assay [1], the Kd is 0.89 µM. Besides, in assay [2], the IC50 came out at 0.63 µM and the inhibition at 6 µM is 100%.
For `OC(c1ccccc1)(c1ccc2nc(Cl)c(-c3ccccc3Cl)c(Cl)c2c1)c1ncco1` (stereo not drawn) [Example 74, (2,4-Dichloro-3-(2-chlorophenyl)quinolin-6-yl)(oxazol-2-yl)(phenyl)methanol] the same measures were 11 µM, over 6 µM and 60%.
As to `N#Cc1nc2ccc(C(O)(c3ccc(C(F)(F)F)nc3)c3cccc(Cl)c3)cc2cc1-c1ccccc1` (stereo not drawn) [Example 75, 6-((3-Chlorophenyl)(hydroxy)(6-(trifluoromethyl)pyridin-3-yl)methyl)-3-phenylquinoline-2-carbonitrile], in assay [1], the Kd was 14 µM. In assay [2], the IC50 came to 2.9 µM and the inhibition at 6 µM amounted to 99%.
With `N#Cc1nc2ccc(C(O)(c3cccc(Cl)c3)c3ccnc(C(F)(F)F)c3)cc2c(C#N)c1-c1ccccc1` (stereo not drawn) [Example 76, 6-((3-Chlorophenyl)(hydroxy)(2-(trifluoromethyl)pyridin4-yl)methyl)-3-phenylquinoline-2,4-dicarbonitrile], in assay [1], the Kd was 18 µM. Further, in assay [2], the 50% inhibitory concentration (IC50) is about 2 µM and the inhibition at 6 µM was determined as 80%.
Consider `OC(c1cccc(Cl)c1)(c1ccnc(C(F)(F)F)c1)c1ccc2nc(Cl)c(-c3ccccc3)c(Cl)c2c1` (stereo not drawn) [Example 77, (3-Chlorophenyl)(2,4-dichloro-3-phenylquinolin-6-yl)(2-(trifluoromethyl)pyridin-4-yl)methanol], for which the Kd in assay [1] was 12 µM. For the same compound, in assay [2], the IC50 is over 6 µM and the inhibition at 6 µM came out at 48%.
As to `CN1CCC(C(O)(c2cccnc2)c2ccc3nc(Cl)c(-c4ccccc4)c(Cl)c3c2)CC1` (stereo not drawn) [Example 78, (2,4-Dichloro-3-phenylquinolin-6-yl)(1-methylpiperidin4-yl)(pyridin-3-yl)methanol•TFA], the Kd in assay [1] is 14 µM. Further, in assay [2], the half-inhibitory concentration (IC50) is over 6 µM and the inhibition at 6 µM came out at 33%.
Regarding `CCCCc1c(-c2ccccc2)c(OC(C)C)nc2ccc(C(O)(c3ccncc3)c3cncn3C)cc12` (stereo not drawn) [Example 80, (4-Butyl-2-isopropoxy-3-phenylquinolin-6-yl)(1-methyl-1H-imidazol-5-yl)(pyridin4-yl)methanol•TFA], in assay [1], the Kd is 12 µM. In assay [2], the IC50 is over 6 µM and the inhibition at 6 µM was 72%.
As for `CNCCN(C)c1nc2ccc(C(O)(c3ccncc3)c3cncn3C)cc2c(Cl)c1-c1ccccc1` (stereo not drawn) [Example 82], the equilibrium dissociation constant (Kd) in assay [1] is 11 µM. In assay [2], the IC50 is over 6 µM and the inhibition at 6 µM was found to be 18%.
Consider `CN(C)c1nc2ccc(C(O)(c3ccncc3)c3ccccn3)cc2c(Cl)c1-c1ccccc1` (stereo not drawn) [Example 84, (4-Chloro-2-(dimethylamino)-3-phenylquinolin-6-yl)(pyridin-2-yl)(pyridin4-yl)methanol•TFA], for which the Kd in assay [1] is 17 µM. Moreover, in assay [2], the IC50 amounted to 3.5 µM and the inhibition at 6 µM was 93%.
For `CN(C)c1c(-c2ccccc2)c(Cl)nc2ccc(C(O)(c3ccccn3)c3cncn3C)cc12` (stereo not drawn) [Example 85, (2-Chloro-4-(dimethylamino)-3-phenylquinolin-6-yl)(1-methyl-1H-imidazol-5-yl)(pyridin-2-yl)methanol•TFA] the same measures were 20 µM, 3.5 µM and 81%.
For `Cc1nc(C)c(C(O)(c2ccc(Cl)cc2)c2ccc3nc(Cl)c(-c4ccccc4)c(Cl)c3c2)s1` (stereo not drawn) [Example 87, (4-Chlorophenyl)(2,4-dichloro-3-phenylquinolin-6-yl)(2,4-dimethylthiazol-5-yl)methanol], in that order: 12 µM, over 6 µM and 56%.
For `COc1nc2ccc(C(O)(c3ncccn3)c3cncn3C)cc2c(OC)c1-c1ccccc1` (stereo not drawn) [Example 88, (2,4-Dimethoxy-3-phenylquinolin-6-yl)(1-methyl-1H-imidazol-5-yl)(pyrimidin-2-yl)methanol], in that order: 20 µM, over 6 µM and 32%.
`OC(c1cccnc1)(c1ccc2nc(Cl)c(-c3ccccc3)c(Cl)c2c1)C1CCNCC1` (stereo not drawn) [Example 91, (2,4-Dichloro-3-phenylquinolin-6-yl)(piperidin-4-yl)(pyridin-3-yl)methanol•TFA]: in assay [1], the Kd was 21 µM. In assay [2], the IC50 is over 6 µM and the inhibition at 6 µM was 0%.

Source of the values: patent EP3057950B1, “PHENYL LINKED QUINOLINYL MODULATORS OF ROR-GAMMA-T” (Janssen Pharmaceutica NV, priority 2013, dated 2015).
